Data taken from patent US6337316B1, “Pharmaceutical compositions thereof, and methods of using same” (Applied Research Systems ARS Holding N.V., priority 1997, dated 2002).
Bridge positions count the residues as written; N and C are the ends. Ends that are not written are not given here.

How the values were obtained:
[1] = test system: murine MLR splenocyte proliferation; test: One-way murine MLR (C57Bl/6 stimulators, BalB/c responders); format: cell-based, mouse; details: peptides tested 100 μM to 1.56 μM (FIG. 9)
Description: One-way murine MLRs were set up using the C57Bl/6 mice splenocytes as stimulators and BalB/c splenocytes as responders.
Spleens were excised from mice (Jackson Laboratories, Bar Harbor, Ma.) 6-8 weeks of age. Cells were separated from the capsule using sterile frosted glass slides and washed in cold RPMI 1640 1×. Red blood cells were lysed by treating the spleen cell suspension with cold Tris ammonium chloride buffer (2 ml/spleen) for 3 min on ice. After lysis, the cells were washed 2× in 5 volumes of complete medium (RPMI 1640 containing 10 % heat-inactivated FBS, 2 mM glutamine, 50 μM 2-mercaptoethanol, 100 U/ml penicillin-100 μg/ml strepcomycin, 1 mM sodium pyruvate and 1 mM non-essential amino acids).
Plastic-adherent cells were removed from splenocytes of BalB/c mice by adjusting the cell concentration to 3×10^6 cells/ml in complete medium and incubating the cells for 1.5-2 h at 37° C. in T-75 flasks. Following incubation non-adherent cells were collected by gently washing the flasks and the percent recovery determined (60-70%). Bal b/C responder cells were stored on ice until mitomycin C treatment of stimulator cells was completed.
Following RBC lysis splenocytes of C57Bl/6 mice were adjusted to 2-4×10^6 cells/ml in complete medium and treated with mitomycin C (50 μg/ml) for 30 min at 37° C. in a humidified 5% CO2 in air atmosphere. Following treatment, cells were washed with 5 volumes of complete medium 3×, and viable counts determined using trypan blue.
To set up autologous stimulation controls some responder cells were also treated with mitomycin C as mentioned above.
For the assay, responder and stimulator cells were plated at 10^5 cells/well in 96-well round bottom plates. […]
Appropriate scrambled peptide controls and matrix controls were included in every assay. […] Proliferation of the cells was determined by pulsing the wells with 3H-Tdr (1 μCi/well) For the last 6 h of the assay. Plates were harvested and the counts incorporated determined as described above.

[2] = test system: lymphocyte proliferation in the human MLR; format: cell-based; details: for effect on the human MLR in combination with CTLA-4Ig: CTLA-4Ig spiked in at 0.5 μg/ml (FIG. 8); for Human MLR (ability to inhibit lymphocyte proliferation, cpm): peptide 12.5 to 100 μM, assays of 1/24, 1/31, 3/6, 4/17, 5/2, one symbol per assay; for inhibition of the MLR, in words: control and linear peptides compared with AT 199
Description: Whole blood from donors was obtained from Interstate Blood Bank, Memphis, Tenn. Blood specimens were handled in a biosafety level 2 containment facility as recommended for potentially infectious blood specimens in the CDC/NIH manual Biosafety in Microbiological and Biomedical Laboratories; 3rd edition, 1993, page 10. Peripheral blood mononuclear cells (PBMC) were separated from red blood cells and granulocytes by ficoll-hypaque purification. Whole peripheral blood was diluted 1:2 in PBS and 30 ml was overlayed onto 15 ml of ficoll-hypaque in 50 ml polypropylene tubes. The tubes were spun at 400×g for 30 min at 25° C. Following centrifugation, the interface between the upper plasma layer and the lower ficoll layer was collected, cells washed in RPMI-1640 2×, and viable counts determined using trypan blue. Cells to be used as responders in the assay were stored on ice until mitomycin C treatment of stimulator cells was completed.
PBMC, isolated as described above, to be used as stimulators in the assay were adjusted to 2-4×10^6 cells/ml in complete medium (RPMI 1640 containing 10% heat-inactivated human AB serum, 2 mM glutamine, 50 μM 2-mercaptoethanol and 100 U/ml penicillin-100 μg/ml streptomycin), and treated with mitomycin C (25 μg/ml) for 30 min in a 37° C. water bath. Following treatment, cells were washed with S volumes of complete medium 3×, and viable counts determine using trypan blue. To set up autologous stimulation controls some responder cells were also treated with mitomycin C as mentioned above.
Purified CTLA-4Ig fusion protein was produced, as described in Steurer et al. 1995, from a NS-1 cell line kindly donated by Dr. T. Strom (Beth Israel Hospital, Boston, Mass.) as a 1 mg/ml solution in sterile PBS. The protein was stored frozen at −80° C. Upon thawing, the aliquot was stored at 4° C. Purified peptides were lyophilized according to known procedures. Peptides were reconstituted in sterile PBS, pH 7.4 at 2 mM concentration, aliquoted in microfuge cubes and stored frozen at −20° C. For the assay, an aliquot of the peptide was thawed and diluted to 200 μM in complete medium.
For the one-way allogeneic mixed lymphocyte response (MLR) assay, responder cells were plated at 10^6 cells/well, and stimulator cells at 5×10^4 cells/well in 96-well round bottom plates. Cells were incubated with serial dilutions of the anti-CD4 Ab Leu 3A (1 μg/ml-0.06 μg/ml) in triplicate, or an isotype-matched control Ab. Cyclosporin A at 1 μg/ml was used as an additional control.
CTLA-4 Ig was serially diluted an.4 tested from 10 μg/ml to 0.15 μg/ml. Peptides were tested either directly or in the presence of a constant spiked-in dose of CTLA-4 Ig at 0.5 μg/ml. The plates were incubated at 37° C. in a humidified 5% CO2 atmosphere for 7 days.
Proliferation of the cells was determined by pulsing the wells with ^3H-Tdr (1 μCi/well) for the last 18 h of the assay. Plates were harvested using a Tomtec -late harvester and the counts incorporated determined using a Wallac microbetaplate plus reader.
A total of 34 peptides were tested for inhibition of lymphocyte proliferation in the human MLR. Each peptide was tested in a MLR at doses ranging from 12.5 to 100 μM. The activity of each peptide was identified by assigning a + and − tone peptide depending on its ability to inhibit lymphocyte proliferation in the MLR (cpms).

[3] = test system: binding of CTLA-4Ig to B7 on Cess B cells; test: CTLA-4Ig/B7 binding assay on Cess B cells by FACS; design: key to Binding Assay (effect on CTLA-4Ig binding to Cess B cells): −: no change in binding; +: a minor change of <10% in binding; ++: a change of >20% in binding; details: FACS; assays of 3/24, 3/25, 4/5, 4/25; one symbol per assay
Description: +++ was assigned if the peptide tested gave >50% change in cpm in a dose dependent fashion. In addition to the MLR, these 34 peptides were also evaluated in a CTLA-4Ig/B7 binding assay in which the ability of these peptides to affect the binding of CTLA-4Ig to B7 on Cess B cells was examined by FACS analysis.
As with the MLR, a + or − was assigned to each peptide depending on its ability to effect CTLA-4Ig binding to Cess B cells; where − represents no change in binding, + represents a minor change of <10% in binding, and a ++ represents a change of >20% in binding.

B7 on Cess B cells [4] = test: cell-based or functional assay
B7 on Cess B cells [5] = test: FACS competition with CTLA-4Ig on Cess B cells; one grade per run; - no change, + <10% change, ++ >20% change

## AT 199.3: resynthesis of AT 199.1 using the original protocols without change (RKCLMYPPPYYCHH; disulfide 3-12 (inferred); not fully specified (C-terminus); also: disulfide cyclisation only partial, mixed cyclic and linear population)
[1]
  inhibition of the murine MLR: 85%
[2]; 100 μM, one MLR
  inhibition of the human MLR: 30%
[2]
  effect on the human MLR in combination with CTLA-4Ig: inhibited the MLR over and above CTLA-4Ig by itself

## KYLVKQS-OH [AT 122.1]
[2]
  Human MLR (ability to inhibit lymphocyte proliferation, cpm): −, −
[3]
  Binding Assay (effect on CTLA-4Ig binding to Cess B cells): +, −

## LDSAVEV [AT 116.1]
[2]
  Human MLR (ability to inhibit lymphocyte proliferation, cpm): − (all concentrations of peptide tested gave <15% change in cpm)
[3]
  Binding Assay (effect on CTLA-4Ig binding to Cess B cells): −

## LDSAVEV-OH [AT 117.1]
[2]
  Human MLR (ability to inhibit lymphocyte proliferation, cpm): − (all concentrations of peptide tested gave <15% change in cpm)
[3]
  Binding Assay (effect on CTLA-4Ig binding to Cess B cells): + (a minor change of <10% in binding)

## NECTFCDD (not fully specified (bridges); cysteine pairing not given here) [AT 197.1]
[2]
  Human MLR (ability to inhibit lymphocyte proliferation, cpm): −, −, −
[3]
  Binding Assay (effect on CTLA-4Ig binding to Cess B cells): −, −, −

## RKCLAYPPPYYCHH (not fully specified (bridges); cysteine pairing not given here) [AT 200.1]
[2]
  inhibition of the MLR, in words: did not inhibit any of the MLRs as much as AT 199
  Human MLR (ability to inhibit lymphocyte proliferation, cpm): −, −, −
[3]
  Binding Assay (effect on CTLA-4Ig binding to Cess B cells): −, −, −

## RKCLGYPPPYYCHH (not fully specified (bridges); cysteine pairing not given here) [AT 201.1]
[1]
  inhibition of the murine MLR: 25%
[2]
  effect on the human MLR in combination with CTLA-4Ig: no effect
  inhibition of the MLR, in words: did not inhibit any of the MLRs as much as AT 199
  Human MLR (ability to inhibit lymphocyte proliferation, cpm): −, −, −
[3]
  Binding Assay (effect on CTLA-4Ig binding to Cess B cells): −, −, −

B1: AT 199.1 (peptide)
peptide: RKCLMYPPPYYCHH
modifications: disulfide 3-12; not fully specified (C-terminus)
B7 on Cess B cells [4]
  apparent IC50 of inhibition in the MLR: 50 to 100 µM
  inhibition of human MLR by batch AT 199.2A at 100 µM, one MLR: 50%
  inhibition of human MLR by batch AT 199.2A, another MLR: 25%
  inhibition of human MLR by batch AT 199.3 at 100 µM, one MLR: 30%
  inhibition of lymphocyte proliferation in a human MLR (AT 199, doses up to 100 µM): 70%
  inhibition of lymphocyte proliferation in a second human MLR (AT 199, doses up to 100 µM): 30%

B2: AT 135.1 (peptide)
peptide: CSPNQC
modifications: disulfide 1-6 (inferred); not fully specified (C-terminus)
B7 on Cess B cells [5]
  percent change in CTLA-4Ig binding to B7 on Cess B cells (FACS): > 20%

B3: AT 129.1 (peptide)
peptide: CMYPPPYYRGGKC
modifications: disulfide 1-13 (inferred); not fully specified (C-terminus)
B7 on Cess B cells [5]
  percent change in CTLA-4Ig binding to B7 on Cess B cells (FACS): > 20%

B4: AT 128.1 (peptide)
peptide: CRQADSQVTEC
modifications: disulfide 1-11 (inferred); not fully specified (C-terminus)
B7 on Cess B cells [5]
  percent change in CTLA-4Ig binding to B7 on Cess B cells (FACS): < 10%

B5: AT 117.1 (peptide)
peptide: LDSAVEV-OH
B7 on Cess B cells [5]
  percent change in CTLA-4Ig binding to B7 on Cess B cells (FACS): < 10%
